Data as given in patent US9827189B2, “Stable parenteral DNJ compositions” (AMICUS THERAPEUTICS, INC., priority 2013, dated 2017).

Experiments:
[1] = Stability and integrity of 1-DNJ-HCl in buffer solutions at 60° C. by NP-HPLC (UV and CAD) and discoloration; assay type: physicochemical; conditions: 1-DNJ/buffer formulations with a pH in the range of about 6.0-7.5
Experimental: 1-DNJ-HCl was dissolved in sodium phosphate buffer. 1-DNJ-HCl concentration was 60 mg/mL; sodium phosphate buffer concentration was 100 mM at pH 4.89. The formulation was stored at 60° C. for 4 days. 1-DNJ-HCl solution in water was used as a control. Reaction rate for small molecules such as 1-DNJ-HCl generally follows Arrhenius equation where reaction rate nearly doubles for every 10° C. increase in the temperature. Thus, under this model, the reaction rate at 60° C. would be 2^5 or 32 times the reaction rate at 10° C. Therefore during 4 days at 60° C. 1-DNJ-HCl would degrade by approximately the same percentage as during 128 days (4*32) at 10° C. The stability of 1-DNJ-HCl was measured by normal phase high performance liquid chromatography (NP-HPLC). 1-DNJ-HCl was recorded by UV chromatograms and by Charged Aerosol Detector (CAD) chromatograms. Mobile phase consisted of ACN/30 mM Ammonium Acetate (90/10, v/v). The flow rate was 1.0 ml/min with 5 μl injection at 400° C. UV absorbance was measured at 220 nm CAD detector settings were 35.0 psi, Gain: 100 pA. 1-DNJ-HCl was dissolved in sodium acetate buffer. The 1-DNJ-HCl concentration was 60 mg/mL; sodium acetate buffer concentration was 50 mM at pH 5.5. The formulation was stored at 60° C. for 4 days. 1-DNJ-HCl solution in water was used as control. Reaction rate for small molecules such as 1-DNJ-HCl generally follows the Arrhenius equation, in which the reaction rate nearly doubles for every 10°K increase in the temperature. Thus the reaction rate, under this model, at 60° C. would be 2^5 or 32 times the reaction rate at 10° C. Therefore during 4 days at 60° C. 1-DNJ-HCl would degrade by approximately same percentage as during 128 days at 10° C. The stability of 1-DNJ-HCl was measured by NP-HPLC. Presence of 1-DNJ-HCl was recorded by UV absorbance detector and by Charged Aerosol Detector. Mobile phase consisted of ACN/30 mM Ammonium Acetate (90/10, v/v). The flow rate was 1.0 ml/min with 5 μl injection at 400 C. UV absorbance was measured at 220 nm. CAD detector settings were 35.0 psi, Gain: 100 pA. 1-DNJ-HCl was dissolved in sodium citrate buffer that further includes EDTA. 1-DNJ-HCl concentration was 60 mg/mL; sodium citrate buffer concentration was 50 mM at pH 4.6. The EDTA concentration was 0.05% w/v. Some samples were stored under the nitrogen atmosphere (essentially 100% nitrogen) while others were stored under air. The formulation was stored at 60° C. for 8 days. Stability of 1-DNJ-HCl was measured by NP-HPLC. Presence of 1-DNJ-HCl was recorded by UV absorbance detector and by Charged Aerosol Detector. Mobile phase consisted of ACN/30 mM Ammonium Acetate (90/10, v/v). The flow rate was 1.0 ml/min with 5 μl injection at 400 C. UV absorbance was measured at 220 nm. CAD detector settings were 35.0 psi, Gain: 100 pA. 1-DNJ-HCl was dissolved in sodium citrate buffer. 1-DNJ-HCl concentration was 60 mg/mL; sodium citrate buffer concentration was 50 mM at pH 4.7. The formulation was stored at 60° C. for 8 days. 1-DNJ-HCl solution in water was used as control. Stability of 1-DNJ-HCl was measured by NP-HPLC. Presence of 1-DNJ-HCl was recorded by UV absorbance detector and by Charged Aerosol Detector. Mobile phase consisted of ACN/30 mM Ammonium Acetate (90/10, v/v). The flow rate was 1.0 ml/min with 5 μl injection at 400 C. UV absorbance was measured at 220 nm. CAD detector settings were 35.0 psi, Gain: 100 pA. 1-DNJ-HCl was dissolved in sodium citrate buffer. 1-DNJ-HCl concentration was 60 mg/mL; sodium citrate buffer concentration was 50 mM at pH 5.0. The formulation was stored at 60° C. for 17 days. The samples were stored under the nitrogen atmosphere (essentially 100% nitrogen). 1-DNJ-HCl solution in water was used as control. Reaction rate for small molecules such as 1-DNJ-HCl generally follows Arrhenius equation where reaction rate nearly doubles for every 10°K increase in the temperature. Thus reaction rate at 60° C. would be 2^5 or 32 times the reaction rate at 10° C. Therefore during 17 days at 60° C. […]

[2] = system: cynomolgus monkey whole blood; assay: Hemolytic potential in cynomolgus monkey whole blood; assay type: cell-based; conditions: 37 ° C. 30 minutes
Experimental: (§1) 1-DNJ-HCl was dissolved in sodium citrate buffer. 1-DNJ-HCl concentration was 30 mg/mL (resulting free 1-DNJ concentration was 25 mg/mL); sodium citrate buffer concentration was 50 mM at pH 5.0. 1-DNJ-HCl formulation was added to whole blood samples of male human, rat, and cynomolgus monkey. […]. Buffer served as a negative control, while Triton-X 100 (Lysing agent) served as a positive control. Additionally blood sample without any additions was used as a negative control. The samples were stored at 4° C. Blood samples were incubated at 37 ° C. for 30 minutes with the 1-DNJ-HCl formulation, after which the samples were centrifuged. The amount of hemoglobin in the supernatant from each centrifuged sample was measured using a commercially available hemoglobin assay kit (BioAssay Systems, QuantiChrom™ Hemoglobin Assay Kit) and the Tecan microplate reader.

rat whole blood = assay: Hemolytic potential in rat whole blood; assay type: cell-based, Sprague Dawley rat; conditions: 37 ° C. 30 minutes
Experimental: as §1

human whole blood = assay: Hemolytic potential in human whole blood; assay type: cell-based; conditions: 37 ° C. 30 minutes
Experimental: as §1

[3] = 500 μL blood mixed with 500 μL sample (30 mg/mL AT2220 or 0.1% Triton X-100)
[4] = 500 μL blood mixed with 500 μL sample, 30 mg/mL AT2220 dilution 1, 0.1% Triton X-100 dilution 100
[5] = supernatant, 500 μL blood mixed with 500 μL sample (30 mg/mL AT2220 or 0.1% Triton X-100)

| Molecule | Discoloration [1] | % RBC lysis [2, 3] [%] | Avg OD (n = 4) [2, 4] | Hemoglobin [2, 5] [mg/dL] | % RBC lysis (rat whole blood; [3]) [%] | Avg OD (n = 4) (rat whole blood; [4]) | Hemoglobin (rat whole blood; [5]) [mg/dL] | % RBC lysis (human whole blood; [3]) [%] | Avg OD (n = 4) (human whole blood; [4]) | Hemoglobin (human whole blood; [5]) [mg/dL] |
| --- | --- | --- | --- | --- | --- | --- | --- | --- | --- | --- |
| OC[C@H]1NC[C@H](O)[C@@H](O)[C@@H]1O [1-DNJ, 1-deoxynojirimycin] | discoloration may occur | – | – | – | – | – | – | – | – | – |
| Triton X-100 | – | 100.0 | 0.2000 | 4984 | 100.0 | 0.2567 | 6398 | 100.0 | 0.2768 | 6899 |
